Data taken from US12577213B2 (NINGBO COMBIREG PHARMACEUTICAL TECHNOLOGY CO., LTD., priority 2020, dated 2026).
Read-outs that look alike come from different tables or passages of the source.

Tests used:
LOX-IMVI (melanoma) = test: NCI method SRB growth inhibition, LOX-IMVI; type: cell-based; details: Homo sapiens, treated 48 hours, SRB stain
Method in brief: (§1)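 Cells were exposed to compound for 48 h alongside a time-zero plate fixed at dosing and a 48 h vehicle control, then stained with sulforhodamine B and read at 515 nm. GI50 is the concentration giving 50% growth relative to time-zero and vehicle ODs; TGI where test OD equals time-zero OD; LC50 where 50% of starting cells are killed.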

[1] = test system: SF295 (central nervous system tumor); test: NCI method SRB growth inhibition, SF295; type: cell-based; details: Homo sapiens, SF-295; SF295, treated 48 hours, SRB stain
Method in brief: as §1

PC-3 (prostate cancer) = test: NCI method SRB growth inhibition, PC-3; type: cell-based; details: Homo sapiens; PC-3, treated 48 hours, SRB stain
Method in brief: as §1

HCT116 (colon cancer) = test: NCI method SRB growth inhibition, HCT116; type: cell-based; details: Homo sapiens, HCT-116; HCT116, treated 48 hours, SRB stain
Method in brief: as §1

HS 578T (breast cancer) = test: NCI method SRB growth inhibition, HS 578T; type: cell-based; details: Homo sapiens, HS578T, treated 48 hours, SRB stain
Method in brief: as §1

[2] = Metabolic stability in vivo (plasma half-life after IV); details: mouse, plasma, iv; intravenously at 1 mg/kg, male BALB/c nude mice; read-out: T½ of (IV in nude mice) (converted)
Protocol: The intravenous injection group of the embodiment compound was prepared with the mixed solvent of DMA:PEG400:30% SBECD=5:25:70 to form a 0.2 mg/mL of solution, and administered intravenously at 1 mg/kg of weight; and the oral preparation group was prepared with 0.5% MC to form a 1 mg/mL of solution, and administered by oral gavage at 10 mg/kg weight.
• Male BALB/c nude mice, 4-5 weeks old, purchased from Shanghai SLAC. 3. Experiment Method: 3.1 Instruments: • Liquid chromatography system: Shimadzu liquid chromatography system Shimadzu LC-30AD • MS/MS system: Applied Biosystems API5500 • Data collection: Analyst Software 1.5.2 3.2 Chromatographic Conditions Chromatographic Column • Analytical column: Kinetex 2.6u C18 100 A column (3.0 mm×30 mm) • Mobile phase: A: 10 mM NH4OAc (0.1% FA); B: Acetonitrile with 0.1% […] • Flow rate: 1.0 mL/min
Ion source was an electron spray ionization (ESI source) with negative ion detection; spray voltage source was 5500 V; ion source gas 1 (N2) was 50 psi; ion source gas 2 (N2) was 50 psi; air curtain gas (N2) was 30 psi. Scanning mode was multiple reaction monitoring (MRM); scanning time was 80 ms; collision gas pressure was 10 psi;
Grouping experiment, with three animals in each group, starting from now on, administration was started according to the weight of the animals. Blood was collected according to 5 min, 15 min, 30 min, 1 h, 2 h, 4 h, 8 h and 24 h after administration.
To 25.0 μL of plasma, 25.0 μL of internal standard solution (Tolbutamide (250 ng/mL) in acetonitrile), 25.0 μL of acetonitrile and 100 μL of acetonitrile were added, and the mixture was vortexed for 1 min, and centrifuged for 5 min (14000 rpm). 120 μL of the resulting supernatant was added with 80.0 μL of water (containing 1% formic acid) and mixed well, then analyzed by LC/MS/MS.

OVCAR-3 (ovarian cancer) = test: NCI method SRB growth inhibition, OVCAR-3; type: cell-based; details: Homo sapiens; OVCAR-3, treated 48 hours, SRB stain
Method in brief: as §1

[3] = test system: A549 (non-small cell lung cancer); test: NCI method SRB growth inhibition, A549; type: cell-based; details: Homo sapiens; A549, treated 48 hours, SRB stain
Method in brief: as §1

K562 (leukemia) = test: NCI method SRB growth inhibition, K562; type: cell-based; details: Homo sapiens; K562, treated 48 hours, SRB stain
Method in brief: as §1

786-0 (renal cancer) = test: NCI method SRB growth inhibition, 786-0; type: cell-based; details: Homo sapiens; 786-0, treated 48 hours, SRB stain
Method in brief: as §1

[4] = Liver microsomes stability; type: in vitro ADME, human; details: for half-life at 1 μM: human, human liver microsomes
Method in brief: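 Compound at 1 μM final incubated with 1 mg/mL human liver microsomes and 1 mM NADPH (no-NADPH control), sampled at 0, 5, 15, 30, 60 min. Remaining parent quantified by LC-MS/MS; T1/2 = 0.693/k.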

## [2H]C([2H])([2H])C([2H])([2H])N(C(=O)C[C@H]1C(=O)Nc2cc(NC(=O)c3cc(OC)c(OC)c(OC)c3Cl)c(Oc3cc(C)cc(C)c3)cc2C(=O)N1C)C([2H])([2H])C([2H])([2H])[2H] [Compound 12, (S)-2-chloro-N-[3-[2-[bis(pentadeuteroethyl)amino]-2-oxoethyl]-7-(3,5-dimethylphenoxy)-4-methyl-2,5-dioxo-2,3,4,5-tetrahydro-1H-benzo[e][1,4]diazepin-8-yl]-3,4,5-trimethoxybenzamide]
LOX-IMVI (melanoma)
  GI50: < 5 nM
[1]
  GI50: 10.8 nM
PC-3 (prostate cancer)
  GI50: 5.4 nM
HCT116 (colon cancer)
  GI50: < 5 nM
HS 578T (breast cancer)
  GI50: 13.3 nM
[2]
  half-life: 34 min
OVCAR-3 (ovarian cancer)
  GI50: 12.6 nM
[3]
  GI50: < 5 nM
K562 (leukemia)
  GI50: < 5 nM
786-0 (renal cancer)
  GI50: 9.9 nM
[4]; 1 μM compound, 1 mg/mL human liver microsomes, 1 mM NADPH
  microsomal CLint at 1 μM: 30.7 µL/min/mg
[4]; 1 μM compound, 1 mg/mL human liver microsomes, 1 mM NADPH, read-out: T½ of HLM
  half-life at 1 μM: 22.6 min
[4]; as repeated in Table 4, read-out: T½ of HLM (in vitro)
  half-life at 1 μM: 22.6 min
